In patent publication US20260007681A1, “INDOLE DERIVATIVES AS ESTROGEN RECEPTOR DEGRADERS” (REGENTS OF THE UNIVERSITY OF MICHIGAN, priority 2022, published 2026):

Biological target: ER (Homo sapiens (Human), UniProt P03372)
Assay: Western blot analysis (Compounds B1-B278)
Type: cell-based
Conditions: ER degradation by traditional Western blot; DC50 classes
Method in brief: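 Compound-treated cells were lysed in RIPA buffer (Tris.HCl pH 7.6, 1% NP-40, deoxycholate, 0.1% SDS) with protease inhibitors; equal protein was resolved on 10% SDS-PAGE, transferred to PVDF and immunoblotted. Band intensities were quantified and normalized to GAPDH.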

Sequence of ER (P03372 whole entry): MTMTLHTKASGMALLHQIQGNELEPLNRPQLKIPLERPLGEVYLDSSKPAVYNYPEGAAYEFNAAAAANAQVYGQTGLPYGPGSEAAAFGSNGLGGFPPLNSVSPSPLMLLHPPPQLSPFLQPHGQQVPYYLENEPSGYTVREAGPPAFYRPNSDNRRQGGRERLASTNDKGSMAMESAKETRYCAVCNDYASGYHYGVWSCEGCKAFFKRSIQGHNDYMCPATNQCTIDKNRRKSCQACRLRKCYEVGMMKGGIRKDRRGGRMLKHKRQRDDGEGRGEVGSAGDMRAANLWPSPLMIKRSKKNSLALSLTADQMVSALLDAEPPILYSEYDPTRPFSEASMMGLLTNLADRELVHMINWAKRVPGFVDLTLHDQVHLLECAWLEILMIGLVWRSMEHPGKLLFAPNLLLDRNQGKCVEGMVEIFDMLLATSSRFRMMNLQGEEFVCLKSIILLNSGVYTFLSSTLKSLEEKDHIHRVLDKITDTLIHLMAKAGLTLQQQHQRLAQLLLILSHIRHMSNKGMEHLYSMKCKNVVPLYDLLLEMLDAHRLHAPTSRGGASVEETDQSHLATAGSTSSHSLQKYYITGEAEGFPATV

| Structure (SMILES) | Traditional Western Degradation Potency |
| --- | --- |
| C[C@@H]1Cc2c([nH]c3ccccc23)[C@@H](c2c(F)cc(N3CCC4(CC3)CN(C(=O)CN3Cc5cc6c(cc5C3)C(=O)N(C3CCC(=O)NC3=O)C6=O)C4)cc2F)N1CC(F)F (stereo partly drawn) [Compound B51, 6-(2-(7-(4-((1R,3R)-2-(2,2-difluoroethyl)-3-methyl-2,3,4,9-tetrahydro-1H-pyrido[3,4-b]indol-1-yl)-3,5-difluorophenyl)-2,7-diazaspiro[3.5]nonan-2-yl)-2-oxoethyl)-2-(2,6-dioxopiperidin-3-yl)-6,7-dihydropyrrolo[3,4-f]isoindole-1,3(2H,5H)-dione] | A (“A”: <10 nM) |
| C[C@@H]1Cc2c([nH]c3ccccc23)[C@@H](c2c(F)cc(N3CCC4(CCN(C(=O)CN5Cc6cc7c(cc6C5)C(=O)N(C5CCC(=O)NC5=O)C7=O)CC4)CC3)cc2F)N1CC(F)F (stereo partly drawn) [Compound B52, 6-(2-(9-(4-((1R,3R)-2-(2,2-difluoroethyl)-3-methyl-2,3,4,9-tetrahydro-1H-pyrido[3,4-b]indol-1-yl)-3,5-difluorophenyl)-3,9-diazaspiro[5.5]undecan-3-yl)-2-oxoethyl)-2-(2,6-dioxopiperidin-3-yl)-6,7-dihydropyrrolo[3,4-f]isoindole-1,3(2H,5H)-dione] | A (“A”: <10 nM) |
| C[C@@H]1Cc2c([nH]c3ccccc23)[C@@H](c2c(F)cc(N3CCC(C(=O)N4CCC(CN5Cc6cc7c(cc6C5)C(=O)N(C5CCC(=O)NC5=O)C7=O)CC4)CC3)cc2F)N1CC(F)F (stereo partly drawn) [Compound B53, 6-((1-(1-(4-((1R,3R)-2-(2,2-difluoroethyl)-3-methyl-2,3,4,9-tetrahydro-1H-pyrido[3,4-b]indol-1-yl)-3,5-difluorophenyl)piperidine-4-carbonyl)piperidin-4-yl)methyl)-2-(2,6-dioxopiperidin-3-yl)-6,7-dihydropyrrolo[3,4-f]isoindole-1,3(2H,5H)-dione] | B (“B”: 10-100 nM) |
| C[C@@H]1Cc2c([nH]c3ccccc23)[C@@H](c2c(F)cc(N3CC4(CC(C(=O)N5CCC(N6Cc7cc8c(cc7C6)C(=O)N(C6CCC(=O)NC6=O)C8=O)CC5)C4)C3)cc2F)N1CC(F)F (stereo partly drawn) [Compound B56, 6-(1-(2-(4-((1R,3R)-2-(2,2-difluoroethyl)-3-methyl-2,3,4,9-tetrahydro-1H-pyrido[3,4-b]indol-1-yl)-3,5-difluorophenyl)-2-azaspiro[3.3]heptane-6-carbonyl)piperidin-4-yl)-2-(2,6-dioxopiperidin-3-yl)-6,7-dihydropyrrolo[3,4-f]isoindole-1,3(2H,5H)-dione] | A (“A”: <10 nM) |

More lines, now with the values ahead:

| Traditional Western Degradation Potency | Structure (SMILES) |
| --- | --- |
| A (“A”: <10 nM) | C[C@@H]1Cc2c([nH]c3ccccc23)[C@@H](c2c(F)cc(N3CCC(C(=O)N4CCC(N5Cc6cc7c(cc6C5)C(=O)N(C5CCC(=O)NC5=O)C7=O)CC4)CC3)cc2F)N1CC(F)F (stereo partly drawn) [Compound B54, 6-(1-(1-(4-((1R,3R)-2-(2,2-difluoroethyl)-3-methyl-2,3,4,9-tetrahydro-1H-pyrido[3,4-b]indol-1-yl)-3,5-difluorophenyl)piperidine-4-carbonyl)piperidin-4-yl)-2-(2,6-dioxopiperidin-3-yl)-6,7-dihydropyrrolo[3,4-f]isoindole-1,3(2H,5H)-dione] |
| A (“A”: <10 nM) | C[C@@H]1Cc2c([nH]c3ccccc23)[C@@H](c2c(F)cc(N3CC4(CC(C(=O)N5CCC(CN6Cc7cc8c(cc7C6)C(=O)N(C6CCC(=O)NC6=O)C8=O)CC5)C4)C3)cc2F)N1CC(F)F (stereo partly drawn) [Compound B55, 6-((1-(2-(4-((1R,3R)-2-(2,2-difluoroethyl)-3-methyl-2,3,4,9-tetrahydro-1H-pyrido[3,4-b]indol-1-yl)-3,5-difluorophenyl)-2-azaspiro[3.3]heptane-6-carbonyl)piperidin-4-yl)methyl)-2-(2,6-dioxopiperidin-3-yl)-6,7-dihydropyrrolo[3,4-f]isoindole-1,3(2H,5H)-dione] |
